Values of other authors, collected in patent publication US20080275000A1, “COMPOSITIONS FOR REDUCING, AMELIORATING, TREATING, OR PREVENTING CONDITION OF DRY EYE AND METHODS OF MAKING AND USING SAME” (priority 2007, published 2008).
Read-outs that look alike come from different tables or passages of the source.

Columns and labels:
[1] = buffering agent pH range
[2] = Table 1, only or first printed value

| pKa [2] | pKa (Table 1, second printed value) | Compound | also measured |
| --- | --- | --- | --- |
| – | – | O=S(=O)(O)CCCN1CCOCC1 [MOPS, 3-{N-morpholino}propanesulfonic acid] | pH in the range of [1]: 6.5-7.9 |
| – | – | O=S(=O)(O)CCN1CCN(CCO)CC1 [HEPES, N-{2-hydroxyethyl}peperazine-N′-{2-ethanesulfonic acid}] | pH in the range of [1]: 6.8-8.2 |
| – | – | O=C(O)c1cccnc1 [nicotinic acid] | pKa (first listed value): 10.09; pKa (fourth listed value): 2.86; pKa (second listed value): 9.14; pKa (third listed value): 6.92 |
| – | 5.42 | O=C(O)CCCCCC(=O)O [pimelic acid] | – |
| 4.85 | – | CCCCC(=O)O [valeric acid] | – |
| – | – | COCCN(CC(=O)O)CC(=O)O [2-methoxyethyliminodiacetic acid] | pKa (first listed value): 2.2; pKa (second listed value): 8.96 |
| 4.52 | 5.4 | O=C(O)CCCCCCC(=O)O [suberic acid] | – |
| 4.46 | – | CCCOc1ccc(C(=O)O)cc1 [p-n-propoxybenzoic acid] | – |
| 4.18 | 5.93 | O=C(O)[C@H]1CCC[C@H](C(=O)O)C1 (relative stereo) [1,3-trans-cyclohexanedicarboxylic acid] | – |
| – | 5.41 | O=C(O)CCCCCCCC(=O)O [azelaic acid] | – |
| – | – | CSCCN(CC(=O)O)CC(=O)O [2-methylthioethyliminodiacetic acid] | pKa (first listed value): 2.1; pKa (second listed value): 8.91 |
| 4.40 | 5.45 | O=C(O)[C@H]1CC[C@H](C(=O)O)C1 (relative stereo) [1,3-trans-cyclopentanedicarboxylic acid] | – |
| – | – | O=C(O)CN(CCS(=O)(=O)O)CC(=O)O [N-2-sulfoethyliminodiacetic acid] | pKa (first listed value): 1.92; pKa (second listed value): 2.28; pKa (third listed value): 8.16 |
| 3.89 | 5.91 | O=C(O)[C@@H]1CCC[C@H]1C(=O)O (relative stereo) [1,2-trans-cyclopentanedicarboxylic acid] | – |
| 3.82 | 6.70 | O=C(O)CC1(CC(=O)O)CCCC1 [1,1-cyclopentanediacetic acid] | – |
| 4.44 | 5.79 | O=C(O)[C@H]1CC[C@@H](C(=O)O)CC1 [1,4-cis-cyclohexanedicarboxylic acid] | – |
| 4.25 | 6.22 | CC(CC(=O)O)CC(=O)O [β-methylglutaric acid] | – |
| – | – | O=C(O)CNCC(=O)O [iminodiacetic acid] | pKa (first listed value): 2.98; pKa (second listed value): 9.89 |
| – | – | O=S(=O)(O)CCN(CCO)CCO [BES, N,N-bis{2-hydroxyethyl}2-aminoethanesulfonic acid] | pH in the range of [1]: 6.4-7.8 |
| – | – | O=C(O)CN(CCN(CC(=O)O)CC(=O)O)CCN(CC(=O)O)CC(=O)O [DTPA, diethylenetriaminepentaacetic acid] | two pKa values (bound stated for two pKa values): greater than or equal to 6.30 |

| Compound | pKa [2] | pKa (Table 1, second printed value) | also measured |
| --- | --- | --- | --- |
| CCCC(=O)OO [n-peroxybutyric acid] | 8.2 | – | – |
| O=COO [peroxyformic acid] | 7.1 | – | – |
| CC(=O)C1C(=O)C=C(C)OC1=O (centres unmarked) [dehydroacetic acid] | 5.40 | – | – |
| CCCCOc1ccc(C(=O)O)cc1 [p-n-butoxybenzoic acid] | 4.53 | – | – |
| CC(=O)OO [peroxyacetic acid] | 8.2 | – | – |
| CC1(C(=O)O)CCC(C(=O)O)C1(C)C (stereo not drawn) [(+) camphoric acid] | 4.72 | – | – |
